Measurements taken from US9127303B2, “Method for detection of beta-D-glucuronidase activity in a sample” (Biosynth AG, priority 2011, dated 2015).

Experiments:
[1] = target: beta-D-glucuronidase (type VII-A from E. coli) (Escherichia coli, UniProt P05804); test: Enzymatic assay with purified beta-D-glucuronidase; type: biochemical; details: 0.1 mM, pH 6.8, 37° C., 1 hour
Experimental: (§1) Resorufin-beta-D-glucuronic acid or Resorufin-beta-D-glucuronic acid methyl ester was incubated in presence of glucuronidase, esterase, both enzymes or without enzyme. Measurements were done in microtiter plates at 37° C. in a Spectramax M5 platereader (λex=570 nm, λem=600 nm). Fluorescence in arbitrary units (RFU, relative fluorescence units) is plotted vs. time (min).
(§2) Wells of a microtiter plate were filled with buffer (35 mM potassium phosphate, 4.7 mg/ml bovine serum albumin, pH 6.8) containing Resorufin-beta-D-glucuronic acid or Resorufin-beta-D-glucuronic acid methyl ester at concentrations of 0.1 mM. To the wells were added either a) 0.3 unit beta-D-glucuronidase (type VII-A from E. coli) or b) 10 units esterase (from porcine liver) or c) 0.3 unit beta-D-glucuronidase and 10 units esterase or d) no enzyme. The microtiter plate was incubated at 37° C. for 1 hour. Fluorescence was measured every 1.5 minutes at an excitation wavelength of 570 nm and an emission wavelength of 600 nm (FIG. 2).

[2] = system: esterase (from porcine liver); test: Enzymatic assay with esterase only; type: biochemical; details: 10 units esterase only, 0.1 mM, pH 6.8, 37° C., 1 hour
Experimental: as §1, §2

E. coli culture = test: Detection of microbial beta-D-glucuronidase in preincubated medium; type: cell-based; details: NB with 0.2 mM, preincubated 21 h, 3.5 h, 0 h at 37° C., E. coli about 10^8 cfu/ml
Experimental: The media with the Resorufin-beta-D-glucuronic acid methyl ester were preincubated for different time periods. Measurements were done in microtiter plates at 37° C. in a Spectramax M5 platereader (λex=570 nm, λem=600 nm). Fluorescence in arbitrary units (RFU, relative fluorescence units) is plotted vs. time (min).
(§3) Wells of a microtiter plate were filled with 100 μl Nutrient Broth (NB: 5 g/l peptone, 5 g/l NaCl, 2 g/l yeast extract, 1 g/l beef extract, pH 7.4) containing Resorufin-beta-D-glucuronic acid or Resorufin-beta-D-glucuronic acid methyl ester at concentrations of 0.2 mM. The wells were incubated for different times (21 h, 3.5 h, 0 h) at 37° C. After incubation, 100 μl of an E. coli culture pregrown over night on NB was added (about 10^8 cfu/ml). Fluorescence was measured every 1.5 minutes at an excitation wavelength of 570 nm and an emission wavelength of 600 nm (FIG. 3). The longer the preincubation time of the medium, the more Resorufin-beta-D-glucuronic acid originated from the Resorufin-beta-D-glucuronic acid methyl ester through hydrolysis.

Bacillus cereus = test: Detection of microbial beta-D-glucuronidase in broth cultures in test tubes; type: cell-based; parameters: key: positive (pink colour); negative (yellow colour); details: 1 strain, NB, 0.1 mM, 37° C., 16 hours
Experimental: (§4) Resorufin-beta-D-glucuronic acid or Resorufin-beta-D-glucuronic acid methyl ester was added to test tubes containing 3 ml of Nutrient Broth (NB: 5 g/l peptone, 5 g/l NaCl, 2 g/l yeast extract, 1 g/l beef extract, pH 7.4) or Tryptone Bile Broth (TBB: 20 g/l tryptone, 1.5 g/l bile salts No. 3) at a concentration of 0.1 mM. Tubes were inoculated with cultures pregrown over night on NB and incubated at 37° C. for 16 hours. Tubes were scored visually for beta-D-glucuronidase activity as positive (pink colour) or negative (yellow colour). Both substrates gave the same results for all strains tested (Table 1), showing that the Resorufin-beta-D-glucuronic acid methyl ester can be used in place of the Resorufin-beta-D-glucuronic acid for detection of E. coli.

Salmonella Typhimurium = test: as above; type: cell-based; parameters: key: positive (pink colour); negative (yellow colour); details: 1 strain, NB, 0.1 mM, 37° C., 16 hours
Experimental: as §4

Serratia marcescens = test: as above; type: cell-based; parameters: key: positive (pink colour); negative (yellow colour); details: 1 strain, TBB, 0.1 mM, 37° C., 16 hours
Experimental: as §4

Yersinia enterocolitica = test: as above; type: cell-based; parameters: key: positive (pink colour); negative (yellow colour); details: 1 strain, NB, 0.1 mM, 37° C., 16 hours
Experimental: as §4

Staphylococcus aureus = test: as above; type: cell-based; parameters: key: positive (pink colour); negative (yellow colour); details: 1 strain, NB, 0.1 mM, 37° C., 16 hours
Experimental: as §4

Proteus vulgaris = test: as above; type: cell-based; parameters: key: positive (pink colour); negative (yellow colour); details: 1 strain, NB, 0.1 mM, 37° C., 16 hours
Experimental: as §4

Klebsiella pneumoniae = test: as above; type: cell-based; parameters: key: positive (pink colour); negative (yellow colour); details: 1 strain, TBB, 0.1 mM, 37° C., 16 hours
Experimental: as §4

Citrobacter freundii = test: as above; type: cell-based; parameters: key: positive (pink colour); negative (yellow colour); details: 1 strain, TBB, 0.1 mM, 37° C., 16 hours
Experimental: as §4

Enterobacter aerogenes = test: as above; type: cell-based; parameters: key: positive (pink colour); negative (yellow colour); details: 1 strain, TBB, 0.1 mM, 37° C., 16 hours
Experimental: as §4

Aeromonas hydrophila = test: as above; type: cell-based; parameters: key: positive (pink colour); negative (yellow colour); details: 1 strain, TBB, 0.1 mM, 37° C., 16 hours
Experimental: as §4

Escherichia coli O157:H7 = test: as above; type: cell-based; parameters: key: positive (pink colour); negative (yellow colour); details: Escherichia coli O157:H7, 2 strains, TBB, 0.1 mM, 37° C., 16 hours
Experimental: as §4

Acinetobacter baumanii = test: as above; type: cell-based; parameters: key: positive (pink colour); negative (yellow colour); details: 1 strain, NB, 0.1 mM, 37° C., 16 hours
Experimental: as §4

Hafnia alvei = test: as above; type: cell-based; parameters: key: positive (pink colour); negative (yellow colour); details: 1 strain, NB, 0.1 mM, 37° C., 16 hours
Experimental: as §4

Salmonella Enteritidis = test: as above; type: cell-based; parameters: key: positive (pink colour); negative (yellow colour); details: 1 strain, TBB, 0.1 mM, 37° C., 16 hours
Experimental: as §4

Enterococcus faecalis = test: as above; type: cell-based; parameters: key: positive (pink colour); negative (yellow colour); details: 1 strain, TBB, 0.1 mM, 37° C., 16 hours
Experimental: as §4

Enterobacter cloacae = test: as above; type: cell-based; parameters: key: positive (pink colour); negative (yellow colour); details: 1 strain, NB, 0.1 mM, 37° C., 16 hours
Experimental: as §4

Vibrio parahaemolyticus = test: as above; type: cell-based; parameters: key: positive (pink colour); negative (yellow colour); details: 1 strain, NB, 0.1 mM, 37° C., 16 hours
Experimental: as §4

Escherichia coli = test: as above; type: cell-based; parameters: key: positive (pink colour); negative (yellow colour); details: 19 strains, TBB, 0.1 mM, 37° C., 16 hours
Experimental: as §4

Pseudomonas aeruginosa = test: as above; type: cell-based; parameters: key: positive (pink colour); negative (yellow colour); details: 1 strain, TBB, 0.1 mM, 37° C., 16 hours
Experimental: as §4

[3] = system: Staphylococcus haemolyticus; test: as above; type: cell-based; parameters: key: positive (pink colour); negative (yellow colour); details: 1 strain, NB, 0.1 mM, 37° C., 16 hours
Experimental: as §4

[4] = system: beta-D-glucuronidase positive strains (Escherichia coli); test: Detection of microbial beta-D-glucuronidase activity in broth cultures in microtiter plates; type: cell-based; details: NB, 0.1 mM, 37° C., 20 hours; for Fluorescence (excitation 570 nm, emission 600 nm) over time: about 10 cfu
Experimental: (§5) Fluorescence in arbitrary units (RFU, relative fluorescence units) is plotted vs. time (h).
(§6) Wells of a microtiter plate were filled with Nutrient Broth (NB: 5 g/l peptone, 5 g/l NaCl, 2 g/l yeast extract, 1 g/l beef extract, pH 7.4) containing Resorufin-beta-D-glucuronic acid or Resorufin-beta-D-glucuronic acid methyl ester at concentrations of 0.1 mM. The wells were inoculated with about 10 cfu of cultures pregrown over night on NB and incubated at 37° C. for 20 hours. Fluorescence was measured every 20 minutes at an excitation wavelength of 570 nm and an emission wavelength of 600 nm (FIG. 1).

[5] = system: beta-D-glucuronidase negative strains; test: as above; type: cell-based, Citrobacter freundii, Salmonella enteritidis; details: NB, 0.1 mM, 37° C., 20 hours
Experimental: as §5, §6

[6] = Hydrolysis of the methyl ester in Nutrient Broth medium; type: physicochemical; details: pH 7.4, 37° C.
Experimental: as §3

[7] = 0.3 unit beta-D-glucuronidase and 10 units esterase
[8] = 0.3 unit beta-D-glucuronidase without esterase

beta-D-glucuronidase (type VII-A from E. coli), sequence (P05804 whole entry): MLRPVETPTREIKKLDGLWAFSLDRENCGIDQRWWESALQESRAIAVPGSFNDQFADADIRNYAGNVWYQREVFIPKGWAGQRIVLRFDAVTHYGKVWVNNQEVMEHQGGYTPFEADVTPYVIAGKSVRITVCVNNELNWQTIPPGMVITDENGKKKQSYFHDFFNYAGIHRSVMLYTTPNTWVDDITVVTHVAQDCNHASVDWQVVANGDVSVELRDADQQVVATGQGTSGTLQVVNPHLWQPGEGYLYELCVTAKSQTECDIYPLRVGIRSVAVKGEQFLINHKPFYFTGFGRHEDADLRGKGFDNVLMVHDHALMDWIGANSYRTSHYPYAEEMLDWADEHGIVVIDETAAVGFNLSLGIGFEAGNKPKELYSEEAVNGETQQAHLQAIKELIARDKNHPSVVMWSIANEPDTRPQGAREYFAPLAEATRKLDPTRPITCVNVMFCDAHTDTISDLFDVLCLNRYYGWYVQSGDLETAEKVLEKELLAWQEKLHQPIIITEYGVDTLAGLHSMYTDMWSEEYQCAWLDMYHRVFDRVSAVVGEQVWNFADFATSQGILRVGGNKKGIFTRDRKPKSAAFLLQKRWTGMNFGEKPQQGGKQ

SMILES | Fluorescence (excitation 570 nm, emission 600 nm) over time [1, 7] | Fluorescence (excitation 570 nm, emission 600 nm) over time [1, 8] | Fluorescence (excitation 570 nm, emission 600 nm) over time [2] | Result, beta-D-glucuronidase activity scored visually (Bacillus cereus) | Result, beta-D-glucuronidase activity scored visually (Salmonella Typhimurium) | Result, beta-D-glucuronidase activity scored visually (Serratia marcescens) | Result, beta-D-glucuronidase activity scored visually (Yersinia enterocolitica) | Result, beta-D-glucuronidase activity scored visually (Staphylococcus aureus) | Result, beta-D-glucuronidase activity scored visually (Proteus vulgaris) | Result, beta-D-glucuronidase activity scored visually (Klebsiella pneumoniae) | Result, beta-D-glucuronidase activity scored visually (Citrobacter freundii) | Result, beta-D-glucuronidase activity scored visually (Enterobacter aerogenes) | Result, beta-D-glucuronidase activity scored visually (Aeromonas hydrophila) | Result, beta-D-glucuronidase activity scored visually (Escherichia coli O157:H7) | Result, beta-D-glucuronidase activity scored visually (Acinetobacter baumanii) | Result, beta-D-glucuronidase activity scored visually (Hafnia alvei) | Result, beta-D-glucuronidase activity scored visually (Salmonella Enteritidis) | Result, beta-D-glucuronidase activity scored visually (Enterococcus faecalis) | Result, beta-D-glucuronidase activity scored visually (Enterobacter cloacae) | Result, beta-D-glucuronidase activity scored visually (Vibrio parahaemolyticus) | other results
COC(=O)[C@H]1O[C@@H](Oc2ccc3nc4ccc(=O)cc-4oc3c2)[C@H](O)[C@@H](O)[C@@H]1O [Resorufin-beta-D-glucuronic acid methyl ester] | fast increase of fluorescence | only a slow increase of fluorescence | low background signal | negative | negative | negative | negative | negative | negative | negative | negative | negative | negative | negative | negative | negative | negative | negative | negative | negative | Fluorescence signal after adding E. coli culture, compared with Resorufin-beta-D-glucuronic acid medium (E. coli culture): gets closer to the signal from media originally containing the Resorufin-beta-D-glucuronic acid with longer preincubation time; Result, beta-D-glucuronidase activity scored visually (Escherichia coli): positive; Result, beta-D-glucuronidase activity scored visually (Pseudomonas aeruginosa): negative; Result, beta-D-glucuronidase activity scored visually [3]: negative; Speed of increase in fluorescence compared with Resorufin-beta-D-glucuronic acid [4]: a little slower; Fluorescence (excitation 570 nm, emission 600 nm) over time [4]: increase in fluorescence; Fluorescence (excitation 570 nm, emission 600 nm) over time [5]: only low background signal; Hydrolysis of the methyl ester to Resorufin-beta-D-glucuronic acid in medium [6]: surprisingly fast
O=C([O-])C1OC(Oc2ccc3nc4ccc(=O)cc-4oc3c2)C(O)C(O)C1O.[Na+] [Resorufin-beta-D-glucuronic acid, reference compound] | fast increase of fluorescence | fast increase of fluorescence | low background signal | negative | negative | negative | negative | negative | negative | negative | negative | negative | negative | negative | negative | negative | negative | negative | negative | negative | Result, beta-D-glucuronidase activity scored visually (Escherichia coli): positive; Result, beta-D-glucuronidase activity scored visually (Pseudomonas aeruginosa): negative; Result, beta-D-glucuronidase activity scored visually [3]: negative; Fluorescence (excitation 570 nm, emission 600 nm) over time [4]: increase in fluorescence; Fluorescence (excitation 570 nm, emission 600 nm) over time [5]: only low background signal
